Legend:
[1] = target: T1, endogenous full-length AR (Homo sapiens, UniProt P10275, T878A); experiment: AR transcriptional activity, PSA
T1 sequence (P10275 1-920 T878A): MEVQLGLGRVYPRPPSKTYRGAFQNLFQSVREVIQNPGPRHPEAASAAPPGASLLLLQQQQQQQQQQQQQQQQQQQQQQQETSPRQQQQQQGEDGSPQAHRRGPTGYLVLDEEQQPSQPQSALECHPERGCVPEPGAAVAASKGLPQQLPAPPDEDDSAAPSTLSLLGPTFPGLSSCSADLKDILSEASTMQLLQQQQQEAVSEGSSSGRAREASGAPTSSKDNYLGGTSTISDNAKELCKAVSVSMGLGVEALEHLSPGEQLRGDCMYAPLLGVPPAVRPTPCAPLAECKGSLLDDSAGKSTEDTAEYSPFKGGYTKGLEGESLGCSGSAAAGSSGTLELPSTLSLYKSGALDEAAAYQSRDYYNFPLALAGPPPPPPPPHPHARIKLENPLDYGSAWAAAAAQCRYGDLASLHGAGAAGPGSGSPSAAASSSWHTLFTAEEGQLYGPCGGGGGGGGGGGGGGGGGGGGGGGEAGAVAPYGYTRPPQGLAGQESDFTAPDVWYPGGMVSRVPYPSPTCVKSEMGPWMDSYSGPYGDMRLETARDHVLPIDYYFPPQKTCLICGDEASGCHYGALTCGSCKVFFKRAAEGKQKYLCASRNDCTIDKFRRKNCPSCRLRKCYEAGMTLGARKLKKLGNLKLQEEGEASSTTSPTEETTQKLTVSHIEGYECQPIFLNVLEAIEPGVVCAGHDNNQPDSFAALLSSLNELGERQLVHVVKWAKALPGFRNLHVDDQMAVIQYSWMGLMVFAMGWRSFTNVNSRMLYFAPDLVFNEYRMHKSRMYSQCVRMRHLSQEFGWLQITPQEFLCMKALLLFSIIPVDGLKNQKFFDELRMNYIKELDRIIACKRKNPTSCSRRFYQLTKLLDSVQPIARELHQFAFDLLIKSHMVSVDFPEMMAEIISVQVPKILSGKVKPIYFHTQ

recombinant AR AF-1 = target: T2, recombinant AR AF-1 (Homo sapiens, UniProt P10275); experiment: Cell-free binding to recombinant AR AF-1, competition with cold EPI-002; details: preincubation with 60 μM EPI-002 for 6 hours
T2 sequence (P10275 142-485): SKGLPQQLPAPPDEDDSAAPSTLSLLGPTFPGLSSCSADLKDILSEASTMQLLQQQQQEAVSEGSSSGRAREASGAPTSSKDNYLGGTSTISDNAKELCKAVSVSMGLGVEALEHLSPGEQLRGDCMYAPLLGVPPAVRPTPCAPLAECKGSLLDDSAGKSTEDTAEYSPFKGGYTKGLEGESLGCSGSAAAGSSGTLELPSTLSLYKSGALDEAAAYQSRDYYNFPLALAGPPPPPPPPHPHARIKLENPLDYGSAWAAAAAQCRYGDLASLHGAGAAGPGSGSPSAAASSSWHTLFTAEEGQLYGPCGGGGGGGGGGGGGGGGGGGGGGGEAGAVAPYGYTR

LNCaP95 cells [2] = experiment: LNCaP95 proliferation, BrdU incorporation; format: cell-based, human; details: I-EPI-002 2 μM, EPI-002 25 μM, enzalutamide 5 μM; 2 days
LNCaP95 cells [3] = experiment: Cell cycle analysis of LNCaP95 cells; format: cell-based, human; details: I-EPI-002 5 μM, EPI-002 25 μM, 48 hours
recombinant AR LBD = target: T3, recombinant AR LBD (Homo sapiens, UniProt P10275); experiment: Fluorescence polarization competition binding, AR LBD; details: 1 nM fluorescently labeled ligand, AR LBD 25 nM
T3 sequence (P10275 669-900 limits assumed): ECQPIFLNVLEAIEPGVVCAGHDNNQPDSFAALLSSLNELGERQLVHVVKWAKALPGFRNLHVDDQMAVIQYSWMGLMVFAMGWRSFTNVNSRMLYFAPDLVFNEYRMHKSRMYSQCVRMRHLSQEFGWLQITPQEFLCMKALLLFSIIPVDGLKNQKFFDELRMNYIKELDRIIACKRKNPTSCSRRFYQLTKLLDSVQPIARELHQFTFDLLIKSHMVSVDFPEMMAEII

LNCaP95 cells [4] = experiment: Western blot of cell cycle G1/S-related proteins in LNCaP95 cells; format: cell-based, human; details: enzalutamide 5 μM, EPI-002 25 μM, I-EPI-002 5 μM; 48 hours

inhibition of AR transcriptional activity ([1]; 25 μM, R1881 1 nM) [%]	inhibition of AR transcriptional activity with increasing concentrations of androgen ([1]; increasing R1881, enzalutamide 5 μM, I-EPI-002 5 μM, EPI-002 25 μM)	displacement of ^123I-EPI-002 binding to AF-1 (recombinant AR AF-1)	competition with fluoromone for binding to AR LBD (recombinant AR LBD)	SMILES	effect on proliferation of LNCaP95 cells (LNCaP95 cells [2])	decrease of S phase cells (LNCaP95 cells [3]) [fold]	expression of UBE2C, cyclinD3 and cyclin-dependent kinases (CDKs) (LNCaP95 cells [4])	protein expression of the CDK inhibitor p27kip1 (LNCaP95 cells [4])
~75	maintained effective inhibition	displaced binding	did not prevent ligand-binding	CC(C)(c1ccc(OC[C@H](O)CO)cc1)c1ccc(OC[C@H](O)CCl)cc1 [EPI-002, reference compound]	decreased proliferation	≥ 2	–	–
–	–	–	–	CNC(=O)c1ccc(N2C(=S)N(c3ccc(C#N)c(C(F)(F)F)c3)C(=O)C2(C)C)cc1F [enzalutamide]	–	–	had no effect	had no effect

From paper PMC4980083 (JCI insight, 2016)
